The values below come from paper PMC11371747, “The role of l-leucovorin uptake and metabolism in the modulation of 5-fluorouracil efficacy and antifolate toxicity” (Frontiers in Pharmacology, 2024).

Each structure is given as a SMILES string.

Experiment [1] addresses T1, reduced folate carrier (RFC/SLC19A1) (Homo sapiens, UniProt P41440).
T1 construct: CEM-7A cells, which display 30-fold RFC overexpression relative to wild-type CCRF-CEM cells; endogenous in cells; host or cells: CEM-7A (CCRF-CEM variant, RFC+++ 30-fold)
T1 sequence (P41440 1-591): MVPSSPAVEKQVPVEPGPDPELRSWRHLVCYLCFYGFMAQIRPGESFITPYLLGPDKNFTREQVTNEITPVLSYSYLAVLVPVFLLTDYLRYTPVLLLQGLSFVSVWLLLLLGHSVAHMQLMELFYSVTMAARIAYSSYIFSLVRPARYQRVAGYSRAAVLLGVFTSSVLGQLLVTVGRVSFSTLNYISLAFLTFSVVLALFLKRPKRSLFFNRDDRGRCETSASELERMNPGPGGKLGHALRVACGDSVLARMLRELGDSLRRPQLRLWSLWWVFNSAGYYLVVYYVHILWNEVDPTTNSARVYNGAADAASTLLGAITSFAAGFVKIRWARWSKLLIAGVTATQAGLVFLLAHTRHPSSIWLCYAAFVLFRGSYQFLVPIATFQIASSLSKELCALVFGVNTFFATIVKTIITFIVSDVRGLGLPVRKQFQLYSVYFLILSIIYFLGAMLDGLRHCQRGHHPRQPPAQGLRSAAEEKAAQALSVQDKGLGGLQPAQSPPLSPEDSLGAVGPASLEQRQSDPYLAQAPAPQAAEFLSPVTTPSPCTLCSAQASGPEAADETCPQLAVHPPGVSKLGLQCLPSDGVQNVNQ
The experiment is described as follows: Inhibition of RFC-mediated [3H]-l-LV influx in CEM-7A cells. Type of experiment: cell-based. To be noted: 5 µM [3H]-l-LV, 2 min, 37°C, read-out: Concentration for 50% inhibition of [3H]-l-LV influx (RFC). As to the method: (§1) In order to determine whether the LV isomers were substrates for either folate receptor α (FRα), RFC and/or PCFT, we used model systems with established overexpression of these receptors or transporters ([Westerhof et al., 1995a]; [Westerhof et al., 1995b]; [Lasry et al., 2008]; [Van der Heijden et al., 2009]).
CEM-7A cells (2 × 10^6) were suspended in 1 mL HBSS and the assay was initiated by addition of 25 μL 200 μM [^3H]-l-LV; 5,000 pmol (i.e., 5 μM final concentration). Incubations proceeded for 2 min at 37°C in the absence and presence of increasing amounts of unlabelled LV/antifolate drug. Blanks consisted of a separate incubation at 4°C or incubation with 100-fold molar excess of unlabelled l-LV. [^3H]-l-LV influx was terminated by adding 9 mL ice-cold HBSS, centrifugation and an additional wash of the cells with 10 mL ice-cold buffer. Cell pellets were then assessed for radioactivity. Relative affinities for RFC are expressed as the concentration of unlabelled drug necessary to inhibit [^3H]-l-LV uptake by 50%.

Experiment [2] has as its target T2, human PCFT (Homo sapiens, UniProt Q96NT5).
T2 construct: expressed in transfected cells; host or cells: CHO/C5 (RFC-deficient Chinese hamster ovary cells, no PCFT)
T2 sequence (Q96NT5 1-459): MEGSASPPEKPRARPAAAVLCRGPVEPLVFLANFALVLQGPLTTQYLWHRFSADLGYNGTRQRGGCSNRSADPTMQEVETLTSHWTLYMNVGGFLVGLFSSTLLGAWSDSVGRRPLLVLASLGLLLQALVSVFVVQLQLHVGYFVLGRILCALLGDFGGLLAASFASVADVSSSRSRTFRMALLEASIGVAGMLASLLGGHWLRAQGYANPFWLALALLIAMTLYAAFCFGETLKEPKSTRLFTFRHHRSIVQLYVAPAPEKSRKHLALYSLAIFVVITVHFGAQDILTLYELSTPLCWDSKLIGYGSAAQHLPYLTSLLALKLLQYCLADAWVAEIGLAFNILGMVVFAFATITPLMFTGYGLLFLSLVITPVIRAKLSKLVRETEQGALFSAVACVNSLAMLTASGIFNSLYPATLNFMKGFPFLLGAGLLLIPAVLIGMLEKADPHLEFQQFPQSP
The experiment is described as follows: Inhibition of PCFT-mediated [3H]-l-LV influx in CHO/C5-PCFT cells. Type of experiment: cell-based, Chinese hamster (CHO cells). The settings on record: CHO/C5/PCFT cells, 2.5 µM [3H]-l-LV, pH 5.5, 3 min; read-out: Concentration for 50% inhibition of PCFT-mediated [3H]-l-LV influx. As to the method:
as §1
The competitive inhibition by 2.5 μM [^3H]-l-LV influx of PCFT was measured essentially as described for the RFC assay, except that the incubation time was 3 min, at pH 5.5 (the optimal pH for PCFT) and pH 7.4 with increasing amounts of unlabelled LV stereoisomers/antifolate drug. For PCFT too, relative affinities were expressed as the concentration of unlabelled drug necessary to inhibit 50% of [^3H]-l-LV influx.

The target of experiment [3] is T3, folate receptor α (FRα) (Homo sapiens, UniProt P15328).
T3 construct: endogenous in cells; host or cells: KB cells (FRα++)
T3 sequence (P15328 25-257): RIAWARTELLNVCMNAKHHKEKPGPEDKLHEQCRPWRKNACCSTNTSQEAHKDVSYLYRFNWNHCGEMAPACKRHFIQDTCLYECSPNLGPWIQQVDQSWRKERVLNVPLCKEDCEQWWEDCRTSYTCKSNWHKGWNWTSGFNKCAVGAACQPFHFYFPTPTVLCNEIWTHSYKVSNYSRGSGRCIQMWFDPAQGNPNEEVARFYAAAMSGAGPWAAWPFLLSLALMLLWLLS
The experiment is described as follows: Intact cell competitive binding assay, displacement of [3H]-folic acid from FRα in KB cells. As to the method:
as §1
For FRα we used KB cells ([Westerhof et al., 1995b]). An intact cell binding assay for competitive binding was performed as described previously ([Westerhof et al., 1995a]). Briefly, cells were washed with Hanks balanced salt solution and 6 mM glucose (HBSS, pH 7.4), suspended in 1 mL of this solution (1*10^6 for KB cells) and incubated at 4°C for 15 min with 100 pmol [^3H]-folic acid [(^3H)-FA], in the presence and absence of unlabelled folic acid or LV stereoisomers. Cells were collected by centrifugation and analysed for radioactivity. Relative affinities for FRα were defined as the inverse ratio of compound to displace 50% of radioactive folic acid from FRα. The relative affinity of folic acid was set at 1.
In general terms: In a radioligand displacement assay an active substance lowers the binding of a labelled ligand.

Experiment [4] relates to unselected cell lines with a different pathology. More on the design: method as in Van der Wilt and Peters, 1994. The settings on record: large panel of unselected cell lines with a different pathology; ref Van der Wilt and Peters, 1994; cited from earlier work.

Regarding `Nc1nc2c(c(=O)[nH]1)N(C=O)C(CNc1ccc(C(=O)N[C@@H](CCC(=O)O)C(=O)O)cc1)CN2` (mixture of isomers) [dl-LV], the IC50 in experiment [1] came to 7.3 µM; in experiment [2], 4.5 µM. For the same compound, the “50% [3H]-FA displacement, fold lower concentration than l-LV” value in experiment [3] is recorded as 2 fold. The “Relative affinity for FRα” value in experiment [3] (100 pmol [3H]-FA, inverse ratio of amount of drug displacing 50% of [3H]-FA, FA set to 1) turned out to be 0.041. In addition, in experiment [4], the “Enhancement of the effect of 5FU by dl-LV” value is “about 2 fold”.
